Patent US12583852B2, “Heterocycle derivative” (JW PHARMACEUTICAL CORPORATION, priority 2018, dated 2026)

Tested on: human dermal papilla cells
Experiment: Promotion of proliferation of human dermal papilla cells (CellTiter-Glo Luminescent cell viability assay)
Assay type: cell-based
Details: human dermal papilla cells (ScienCell, 2499); drug 0 to 30 μM; 48 hours; CellTiter-Glo luminescence; compared to DMSO-treated control group
Procedure: The effect of promoting cell proliferation by the drug was analyzed using human dermal papilla cells (ScienCell, 2499). Human dermal papilla cells cultured using Mesenchymal Stem Cell Medium (ScienCell, 7501) medium were seeded at a density of 3×10^3 cells/well and in a volume of 100 μl in a 96-well plate, incubated overnight at 37° C. and 5% CO2, treated with the drug at different concentrations ranging from 0 to 30 μM in a volume of 100 μL, and incubated at 37° C. and 5% CO2 for 48 hours. CellTiter-Glo Luminescent cell viability assay was performed according to the manufacturer's protocol (Promega, G7573) to detect cell proliferation. Luminescence was measured using an Envision 2102 multilabeled reader (PerkinElmer) equipment, and the cell proliferation rate was analyzed by the activity of the drug-treated group compared to the DMSO-treated group (control group), which is a solvent of the drug.

Compound	Maximum DP cell proliferation (%)
Nc1n[nH]c2nc(Nc3cccc4c3CCCC4)ccc12 [Compound 38, N6-(5,6,7,8-tetrahydronaphthalen-1-yl)-1H-pyrazolo[3,4-b]pyridine-3,6-diamine]	2.2
Nc1n[nH]c2nc(Nc3c(O)ccc4c3CCC4)c(F)cc12 [Compound 57, 4-[(3-amino-5-fluoro-1H-pyrazolo[3,4-b]pyridin-6-yl)amino]indan-5-ol]	3.1
Nc1n[nH]c2nc(Nc3cccc(C(F)(F)F)c3F)ncc12 [Example 117, N6-[2-fluoro-3-(trifluoromethyl)phenyl]-1H-pyrazolo[3,4-d]pyrimidine-3,6-diamine]	6.7
CC(=O)Cn1nc(N)c2cc(F)c(Nc3cccc4c3CCC4)nc21 [Compound 94, 1-(3-amino-6-((2,3-dihydro-1H-inden-4-yl)amino)-5-fluoro-1H-pyrazolo[3,4-b]pyridin-1-yl)propan-2-one]	18
Nc1n[nH]c2nc(Nc3cccc4c3CCC4)c(C(=O)O)cc12 [Compound 16, 3-amino-6-((2,3-dihydro-1H-inden-4-yl)amino)-1H-pyrazolo[3,4-b]pyridine-5-carboxylic acid]	6.1
Nc1n[nH]c2nc(Nc3cccc4c3CC=C4)c(F)cc12 [Compound 48, 5-fluoro-N6-(1H-inden-7-yl)-1H-pyrazolo[3,4-b]pyridine-3,6-diamine]	11
Nc1n[nH]c2nc(CNc3cccc4c3CCC4)c(F)cc12 [Compound 34, 5-fluoro-6-[(indan-4-ylamino)methyl]-1H-pyrazolo[3,4-b]pyridin-3-amine]	6.8
Nc1n[nH]c2nc(Nc3cccc4c3CCC4)ncc12 [Example 112, N6-(2,3-dihydro-1H-inden-4-yl)-1H-pyrazolo[3,4-d]pyrimidine-3,6-diamine]	2
COC(=O)CNc1n[nH]c2nc(Nc3cccc4c3CCC4)c(F)cc12 [Compound 101, methyl (6-((2,3-dihydro-1H-inden-4-yl)amino)-5-fluoro-1H-pyrazolo[3,4-b]pyridin-3-yl)glycinate]	9.7
Nc1n[nH]c2nc(Nc3cccc4ncccc34)c(F)cc12 [Compound 60, 5-fluoro-N6-(quinolin-5-yl)-1H-pyrazolo[3,4-b]pyridine-3,6-diamine]	6.1
Nc1n[nH]c2nc(Nc3cccc4c3CCC4)c(F)cc12 [Compound 3, N6-(2,3-dihydro-1H-inden-4-yl)-5-fluoro-1H-pyrazolo[3,4-b]pyridine-3,6-diamine]	23
Cc1c(Nc2nc3[nH]nc(N)c3cc2F)cccc1N(C)C [Compound 33, N6-(3-(dimethylamino)-2-methylphenyl)-5-fluoro-1H-pyrazolo[3,4-b]pyridine-3,6-diamine]	6.3
O=C1c2ccccc2C(=O)N1c1nn(C2CCCCO2)c2nc(Nc3cccc4c3CCC4)c(F)cc12 (stereo not drawn) [Compound 97, 2-(6-((2,3-dihydro-1H-inden-4-yl)amino)-5-fluoro-1-(tetrahydro-2H-pyran-2-yl)-1H-pyrazolo[3,4-b]pyridin-3-yl)isoindoline-1,3-dione]	10
Fc1cc2c(Br)n[nH]c2nc1Nc1c(Br)cc(Br)c2c1CCC2 [Example 119, 3-bromo-N-(5,7-dibromoindan-4-yl)-5-fluoro-1H-pyrazolo[3,4-b]pyridin-6-amine]	1.3
Cc1c(Cl)cccc1Nc1nc2[nH]nc(N)c2cc1F [Compound 67, N6-(3-chloro-2-methylphenyl)-5-fluoro-1H-pyrazolo[3,4-b]pyridine-3,6-diamine]	13
Nc1n[nH]c2nc(Nc3cccc(C(F)F)c3F)c(F)cc12 [Compound 61, N6-(3-(difluoromethyl)-2-fluorophenyl)-5-fluoro-1H-pyrazolo[3,4-b]pyridine-3,6-diamine]	11
Nc1n[nH]c2nc(Nc3cccc4c3CCC4)ccc12 [Compound 4, N6-(2,3-dihydro-1H-inden-4-yl)-1H-pyrazolo[3,4-b]pyridine-3,6-diamine]	4
Nc1n[nH]c2nc(Nc3ccc(C(F)(F)F)c(F)c3)c(F)cc12 [Compound 72, 5-fluoro-N6-[3-fluoro-4-(trifluoromethyl)phenyl]-1H-pyrazolo[3,4-b]pyridine-3,6-diamine]	6.8
CC1(C)Cc2cccc(Nc3nc4[nH]nc(N)c4cc3F)c2C1 [Compound 52, N6-(2,2-dimethyl-2,3-dihydro-1H-inden-4-yl)-5-fluoro-1H-pyrazolo[3,4-b]pyridine-3,6-diamine]	11
Nc1n[nH]c2nc(Nc3cc(O)cc4c3CCC4)c(F)cc12 [Compound 56, 7-[(3-amino-5-fluoro-1H-pyrazolo[3,4-b]pyridin-6-yl)amino]indan-5-ol]	7.3
O=C(Nc1n[nH]c2nc(Nc3cccc4c3CCC4)c(F)cc12)c1ccncc1 [Compound 91, N-(6-((2,3-dihydro-1H-inden-4-yl)amino)-5-fluoro-1H-pyrazolo[3,4-b]pyridin-3-yl)isonicotinamide]	6.4
